These results are taken from patent publication US12139492B2 (Endotarget Inc., priority 2021, dated 2024).

Read-outs that look alike come from different tables or passages of the source.

For orientation: Dmax means the greatest extent of degradation seen. One may read the DC50 as the concentration at which degradation of the target reaches its halfway point.

For test [1], the target named is BTK (Homo sapiens, UniProt Q06187). Briefly: Degradation of BTK protein in Namalwa cells (Western blot; DC50, Dmax). Particulars: for DC50: cell line not given. On the technique in general: In western blotting, separated proteins are transferred to a membrane and probed.
For test [2], the system named is JeKo-1 cells. Nature of the test: Antiproliferative effect, MTS cell viability assay, JeKo-1 cells. The test is classed as cell-based. The following applies: Homo sapiens; JeKo-1 mantle cell lymphoma cells; read-out: IC50 (anti-proliferation) JeKO-1 cells. The method in brief: (§1)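 Readout was MTS-derived formazan absorbance (490 nm) reflecting metabolically active cells. Treatment lasted 72 h over a 0–10 μM range (0.001, 0.01, 0.1, 1, 10 μM) in JeKo-1 and Mino B-cell malignancy cells.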
A general note: Tetrazolium dyes change colour on reduction, which living cells bring about.

Test [3] deals with Mino cells. Briefly: Antiproliferative effect, MTS cell viability assay, Mino cells. The test is classed as cell-based. The following applies: Homo sapiens, MINO, Mino mantle cell lymphoma cells; read-out: IC50 (anti-proliferation) Mino cells. The essentials: as §1
Where [4] appears, read: read-out: DC50 (BTK degradation), concentration giving 50% reduction of BTK expression level.
Where [5] appears, read: read-out: Dmax (BTK degradation).

Chain of BTK (Q06187 whole entry): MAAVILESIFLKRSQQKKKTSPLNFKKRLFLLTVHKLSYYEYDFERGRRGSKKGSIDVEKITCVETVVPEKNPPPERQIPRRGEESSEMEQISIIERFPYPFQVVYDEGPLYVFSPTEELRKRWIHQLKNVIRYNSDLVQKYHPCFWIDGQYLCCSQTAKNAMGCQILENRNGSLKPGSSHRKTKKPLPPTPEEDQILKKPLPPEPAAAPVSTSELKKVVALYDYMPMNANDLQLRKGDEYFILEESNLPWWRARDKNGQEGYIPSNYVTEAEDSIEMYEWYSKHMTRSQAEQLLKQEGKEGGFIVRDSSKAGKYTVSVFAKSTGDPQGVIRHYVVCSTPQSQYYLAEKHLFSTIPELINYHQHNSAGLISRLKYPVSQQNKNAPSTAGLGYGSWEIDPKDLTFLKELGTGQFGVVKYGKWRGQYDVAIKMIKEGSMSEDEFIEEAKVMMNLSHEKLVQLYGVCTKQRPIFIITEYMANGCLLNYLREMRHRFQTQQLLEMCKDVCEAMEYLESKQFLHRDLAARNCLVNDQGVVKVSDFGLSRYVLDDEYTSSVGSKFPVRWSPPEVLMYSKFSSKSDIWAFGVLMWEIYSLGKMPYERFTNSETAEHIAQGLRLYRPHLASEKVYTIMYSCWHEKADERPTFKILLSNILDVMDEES

Consider `Nc1ncnc2c1c(-c1ccc(Oc3ccccc3)cc1)nn2C1CCN(C2CCN(C(=O)N3CCC(CN4CCC(c5ccc6c(c5)C(=O)N(C5CCC(=O)NC5=O)C6=O)CC4)CC3)CC2)CC1` (stereo not drawn) [Compound 243, 5-(1-((1-(4-(4-amino-3-(4-phenoxyphenyl)-1H-pyrazolo[3,4-d]pyrimidin-1-yl)-[1,4′-bipiperidine]-1′-carbonyl)piperidin-4-yl)methyl)piperidin-4-yl)-2-(2,6-dioxopiperidin-3-yl)isoindoline-1,3-dione], for which the Dmax in test [1] is over 90%. In addition, the DC50 in test [1] (BTK degradation) was under 10 nM. Further, the IC50 in test [2] and in test [3] was 1000 to 10000 nM throughout.

Consider `NC(=O)c1c(-c2ccc(Oc3ccccc3)cc2)nn2c1NCCC2C1CCN(C2CCN(CCN3CCN(c4ccc5c(c4)CN(C4CCC(=O)NC4=O)C5=O)CC3)CC2)CC1` (stereo not drawn) [Compound 308, 7-(1′-(2-(4-(2-(2,6-dioxopiperidin-3-yl)-1-oxoisoindolin-5-yl)piperazin-1-yl)ethyl)-[1,4′-bipiperidin]-4-yl)-2-(4-phenoxyphenyl)-4,5,6,7-tetrahydropyrazolo[1,5-a]pyrimidine-3-carboxamide], for which the Dmax in test [1] is over 75%. Also, in test [1] (BTK degradation), the DC50 is 10 to 50 nM. Besides, the IC50 in test [2] was over 10000 nM; in test [3] it was 1000 to 10000 nM.

On to `Nc1ncnc2c1c(-c1ccc(Oc3ccccc3)cc1)nn2C1CCN(C[C@H]2CCN(CC3CN(c4ccc5c(c4)C(=O)N(C4CCC(=O)NC4=O)C5=O)C3)C2)CC1` (stereo partly drawn) [Compound 423a, 5-(3-(((R)-3-((4-(4-amino-3-(4-phenoxyphenyl)-1H-pyrazolo[3,4-d]pyrimidin-1-yl)piperidin-1-yl)methyl)pyrrolidin-1-yl)methyl)azetidin-1-yl)-2-(2,6-dioxopiperidin-3-yl)isoindoline-1,3-dione], for which the half-maximal degradation concentration (DC50) in test [1] (setting [4]) lay within 10 to 50 nM. Also, in test [1] (setting [5]), the Dmax is over 90%. The values for the IC50 in test [2] and in test [3] were 1000 to 10000 nM and under 1000 nM, respectively.

Turning to `Nc1ncnc2c1c(-c1ccc(Oc3ccccc3)cc1)nn2[C@@H]1CCCN(C(=O)N2CC(N3CCN(c4ccc5c(c4)C(=O)N([C@H]4CCC(=O)NC4=O)C5=O)CC3)C2)C1` [Compound 489, 5-(4-(1-((R)-3-(4-amino-3-(4-phenoxyphenyl)-1H-pyrazolo[3,4-d]pyrimidin-1-yl)piperidine-1-carbonyl)azetidin-3-yl)piperazin-1-yl)-2-((S)-2,6-dioxopiperidin-3-yl)isoindoline-1,3-dione], the DC50 in test [1] (setting [4]) is under 10 nM. Also, the maximal degradation (Dmax) in test [1] (setting [5]) is over 90%. The IC50 in test [2] and in test [3] was under 1000 nM each time.

With `Nc1ncnc2c1c(-c1ccc(Oc3ccccc3)cc1)nn2C1CCN(CCN2CCN(CCSc3ccc4c(c3)CN(C3CCC(=O)NC3=O)C4=O)CC2)CC1` (stereo not drawn) [Compound 466, 3-(5-((2-(4-(2-(4-(4-amino-3-(4-phenoxyphenyl)-1H-pyrazolo[3,4-d]pyrimidin-1-yl)piperidin-1-yl)ethyl)piperazin-1-yl)ethyl)thio)-1-oxoisoindolin-2-yl)piperidine-2,6-dione], in test [1] (setting [4]), the DC50 was over 50 nM. For the same compound, in test [1] (setting [5]), the Dmax is over 50%. For the same compound, the IC50 in test [2] and in test [3] was over 10000 nM each time.

With `Nc1ncnc2c1c(-c1ccc(Oc3ccccc3)cc1)nn2C1CCN(CCCN2CCC(CN3CCC(c4ccc(N5CCC(=O)NC5=O)cc4)CC3)C2)CC1` (stereo not drawn) [Compound 550, 1-(4-(1-((1-(3-(4-(4-amino-3-(4-phenoxyphenyl)-1H-pyrazolo[3,4-d]pyrimidin-1-yl)piperidin-1-yl)propyl)pyrrolidin-3-yl)methyl)piperidin-4-yl)phenyl)dihydropyrimidine-2,4(1H,3H)-dione], the half-maximal degradation concentration (DC50) in test [1] (setting [4]) lay within 10 to 50 nM. In addition, in test [1] (setting [5]), the Dmax is over 90%. The IC50 in test [2] and in test [3] was under 1000 nM in each case.
